Legend:
Assay in all cases: relative viability (nuclei count vs DMSO), 5 days (fraction); higher = more cells survive
Linifanib + Luminespib = compound: Cc1ccc(F)c(NC(=O)Nc2ccc(-c3cccc4[nH]nc(N)c34)cc2)c1 [Linifanib] + CCNC(=O)c1noc(-c2cc(C(C)C)c(O)cc2O)c1-c1ccc(CN2CCOCC2)cc1 [Luminespib] (partner 0.01 µM)
In short: (§1)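 Lung cancer cell lines in 1536-well plates were dosed by pin tool the day after seeding, either with one drug alone or with a fixed anchor-drug dose plus five library-drug doses (not always all listed) in √10 steps. After 5 days, cells were fixed and their nuclei stained in one step (final 0.05% Triton X-100, 1% formaldehyde, 1 ug/ml Hoechst), then counted on 4× images. Relative viability is the nuclei count in treated wells divided by that in vehicle wells. Values are medians of duplicate plates.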

Linifanib + Pemetrexed = compound: Cc1ccc(F)c(NC(=O)Nc2ccc(-c3cccc4[nH]nc(N)c34)cc2)c1 [Linifanib] + Nc1nc2[nH]cc(CCc3ccc(C(=O)N[C@@H](CCC(=O)O)C(=O)O)cc3)c2c(=O)[nH]1 [Pemetrexed] (partner 0.2 µM)
In short: as §1

Linifanib + Dasatinib = compound: Cc1ccc(F)c(NC(=O)Nc2ccc(-c3cccc4[nH]nc(N)c34)cc2)c1 [Linifanib] + Cc1nc(Nc2ncc(C(=O)Nc3c(C)cccc3Cl)s2)cc(N2CCN(CCO)CC2)n1 [Dasatinib] (partner 0.075 µM)
In short: as §1

Linifanib + Tozasertib = compound: Cc1ccc(F)c(NC(=O)Nc2ccc(-c3cccc4[nH]nc(N)c34)cc2)c1 [Linifanib] + Cc1cc(Nc2cc(N3CCN(C)CC3)nc(Sc3ccc(NC(=O)C4CC4)cc3)n2)n[nH]1 [Tozasertib] (partner 0.1 µM)
In short: as §1

Linifanib + OSI-027 = compound: Cc1ccc(F)c(NC(=O)Nc2ccc(-c3cccc4[nH]nc(N)c34)cc2)c1 [Linifanib] + COc1cccc2cc(-c3nc([C@H]4CC[C@H](C(=O)O)CC4)n4ncnc(N)c34)[nH]c12 [OSI-027] (partner 0.5 µM)
In short: as §1

Linifanib + Trametinib = compound: Cc1ccc(F)c(NC(=O)Nc2ccc(-c3cccc4[nH]nc(N)c34)cc2)c1 [Linifanib] + CC(=O)Nc1cccc(-n2c(=O)n(C3CC3)c(=O)c3c(Nc4ccc(I)cc4F)n(C)c(=O)c(C)c32)c1 [Trametinib] (partner 0.02 µM)
In short: as §1

Linifanib + Foretinib = compound: Cc1ccc(F)c(NC(=O)Nc2ccc(-c3cccc4[nH]nc(N)c34)cc2)c1 [Linifanib] + COc1cc2c(Oc3ccc(NC(=O)C4(C(=O)Nc5ccc(F)cc5)CC4)cc3F)ccnc2cc1OCCCN1CCOCC1 [Foretinib] (partner 0.25 µM)
In short: as §1

Linifanib + Olaparib = compound: Cc1ccc(F)c(NC(=O)Nc2ccc(-c3cccc4[nH]nc(N)c34)cc2)c1 [Linifanib] + O=C(c1cc(Cc2n[nH]c(=O)c3ccccc23)ccc1F)N1CCN(C(=O)C2CC2)CC1 [Olaparib] (partner 8 µM)
In short: as §1

Linifanib + Palbociclib = compound: Cc1ccc(F)c(NC(=O)Nc2ccc(-c3cccc4[nH]nc(N)c34)cc2)c1 [Linifanib] + CC(=O)c1c(C)c2cnc(Nc3ccc(N4CCNCC4)cn3)nc2n(C2CCCC2)c1=O [Palbociclib] (partner 0.5 µM)
In short: as §1

Linifanib + Phenformin = compound: Cc1ccc(F)c(NC(=O)Nc2ccc(-c3cccc4[nH]nc(N)c34)cc2)c1 [Linifanib] + N=C(N)NC(=N)NCCc1ccccc1 [Phenformin] (partner 250 µM)
In short: as §1

Linifanib + Decitabine = compound: Cc1ccc(F)c(NC(=O)Nc2ccc(-c3cccc4[nH]nc(N)c34)cc2)c1 [Linifanib] + Nc1ncn([C@H]2C[C@H](O)[C@@H](CO)O2)c(=O)n1 [Decitabine] (partner 2 µM)
In short: as §1

Linifanib + AZD7762 = compound: Cc1ccc(F)c(NC(=O)Nc2ccc(-c3cccc4[nH]nc(N)c34)cc2)c1 [Linifanib] + NC(=O)Nc1cc(-c2cccc(F)c2)sc1C(=O)N[C@H]1CCCNC1 [AZD7762] (partner 0.2 µM)
In short: as §1

Linifanib + Vorinostat = compound: Cc1ccc(F)c(NC(=O)Nc2ccc(-c3cccc4[nH]nc(N)c34)cc2)c1 [Linifanib] + O=C(CCCCCCC(=O)Nc1ccccc1)NO [Vorinostat] (partner 1 µM)
In short: as §1

Linifanib = compound: Cc1ccc(F)c(NC(=O)Nc2ccc(-c3cccc4[nH]nc(N)c34)cc2)c1 [Linifanib]
In short: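 MetaXpress counted nuclei in 4× images of lung cancer cell lines that had been fixed, permeabilised and Hoechst-stained in one step. Before that, cells in 1536-well plates were kept overnight at 37 °C, pinned with five √10-spaced library-drug doses on vehicle-anchored plates, and cultured 5 days without medium change. Viability takes treated-well nuclei over vehicle-well nuclei and uses the median across plates. Plates were accepted only at control CV below 25% and at least one doubling.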

Linifanib + Alpelisib = compound: Cc1ccc(F)c(NC(=O)Nc2ccc(-c3cccc4[nH]nc(N)c34)cc2)c1 [Linifanib] + Cc1nc(NC(=O)N2CCC[C@H]2C(N)=O)sc1-c1ccnc(C(C)(C)C(F)(F)F)c1 [Alpelisib] (partner 2 µM)
In short: as §1

Linifanib + Pictilisib = compound: Cc1ccc(F)c(NC(=O)Nc2ccc(-c3cccc4[nH]nc(N)c34)cc2)c1 [Linifanib] + CS(=O)(=O)N1CCN(Cc2cc3nc(-c4cccc5[nH]ncc45)nc(N4CCOCC4)c3s2)CC1 [Pictilisib] (partner 1 µM)
In short: as §1

Linifanib + Linsitinib = compound: Cc1ccc(F)c(NC(=O)Nc2ccc(-c3cccc4[nH]nc(N)c34)cc2)c1 [Linifanib] + C[C@]1(O)C[C@@H](c2nc(-c3ccc4ccc(-c5ccccc5)nc4c3)c3c(N)nccn32)C1 [Linsitinib] (partner 1 µM)
In short: as §1

Linifanib + Crizotinib = compound: Cc1ccc(F)c(NC(=O)Nc2ccc(-c3cccc4[nH]nc(N)c34)cc2)c1 [Linifanib] + C[C@@H](Oc1cc(-c2cnn(C3CCNCC3)c2)cnc1N)c1c(Cl)ccc(F)c1Cl [Crizotinib] (partner 1 µM)
In short: as §1

Linifanib + Bortezomib = compound: Cc1ccc(F)c(NC(=O)Nc2ccc(-c3cccc4[nH]nc(N)c34)cc2)c1 [Linifanib] + CC(C)C[C@H](NC(=O)[C@H](Cc1ccccc1)NC(=O)c1cnccn1)B(O)O [Bortezomib] (partner 0.002 µM)
In short: as §1

Linifanib + Lapatinib = compound: Cc1ccc(F)c(NC(=O)Nc2ccc(-c3cccc4[nH]nc(N)c34)cc2)c1 [Linifanib] + CS(=O)(=O)CCNCc1ccc(-c2ccc3ncnc(Nc4ccc(OCc5cccc(F)c5)c(Cl)c4)c3c2)o1 [Lapatinib] (partner 2 µM)
In short: as §1

In the case of NCI-H2342, the relative viability (Linifanib + Luminespib; first compound 0.03162 µM) is reported as 0.736, the relative viability (Linifanib + Luminespib; first compound 0.1 µM) is reported as 0.766 and the relative viability (Linifanib + Luminespib; first compound 0.3162 µM) is reported as 0.613. It also gave a relative viability (Linifanib + Pemetrexed; first compound 0.03162 µM) of 0.791, a relative viability (Linifanib + Pemetrexed; first compound 0.1 µM) of 0.832 and a relative viability (Linifanib + Pemetrexed; first compound 0.3162 µM) of 0.769. For the same cell line, the relative viability (Linifanib + Dasatinib; first compound 0.03162 µM) was 0.333, the relative viability (Linifanib + Dasatinib; first compound 0.1 µM) was 0.331 and the relative viability (Linifanib + Dasatinib; first compound 0.3162 µM) was 0.332. The relative viability (Linifanib + Tozasertib; first compound 0.03162 µM) was 0.544, the relative viability (Linifanib + Tozasertib; first compound 0.1 µM) was 0.492 and the relative viability (Linifanib + Tozasertib; first compound 0.3162 µM) was 0.529. It also gave a relative viability (Linifanib + OSI-027; first compound 0.03162 µM) of 0.638, a relative viability (Linifanib + OSI-027; first compound 0.1 µM) of 0.654 and a relative viability (Linifanib + OSI-027; first compound 0.3162 µM) of 0.624. The relative viability (Linifanib + Trametinib; first compound 0.03162 µM) was 0.848, the relative viability (Linifanib + Trametinib; first compound 0.1 µM) was 0.744 and the relative viability (Linifanib + Trametinib; first compound 0.3162 µM) was 0.878. For the same cell line, the relative viability (Linifanib + Foretinib; first compound 0.03162 µM) was 1.18, the relative viability (Linifanib + Foretinib; first compound 0.1 µM) was 1.2 and the relative viability (Linifanib + Foretinib; first compound 0.3162 µM) was 1.15. It also gave a relative viability (Linifanib + Olaparib; first compound 0.03162 µM) of 0.512, a relative viability (Linifanib + Olaparib; first compound 0.1 µM) of 0.481 and a relative viability (Linifanib + Olaparib; first compound 0.3162 µM) of 0.381. The relative viability (Linifanib + Palbociclib; first compound 0.03162 µM) was 0.594, the relative viability (Linifanib + Palbociclib; first compound 0.1 µM) was 0.562 and the relative viability (Linifanib + Palbociclib; first compound 0.3162 µM) was 0.481. For the same cell line, the relative viability (Linifanib + Phenformin; first compound 0.03162 µM) was 0.679, the relative viability (Linifanib + Phenformin; first compound 0.1 µM) was 0.624 and the relative viability (Linifanib + Phenformin; first compound 0.3162 µM) was 0.667. It also gave a relative viability (Linifanib + Decitabine; first compound 0.03162 µM) of 0.732, a relative viability (Linifanib + Decitabine; first compound 0.1 µM) of 0.713 and a relative viability (Linifanib + Decitabine; first compound 0.3162 µM) of 0.768. For the same cell line, the relative viability (Linifanib + AZD7762; first compound 0.03162 µM) was 0.506, the relative viability (Linifanib + AZD7762; first compound 0.1 µM) was 0.506 and the relative viability (Linifanib + AZD7762; first compound 0.3162 µM) was 0.625. The relative viability (Linifanib + Vorinostat; first compound 0.03162 µM) was 0.825, the relative viability (Linifanib + Vorinostat; first compound 0.1 µM) was 0.771 and the relative viability (Linifanib + Vorinostat; first compound 0.3162 µM) was 0.734. The relative viability (Linifanib; 0.03162 µM) was 1.04, the relative viability (Linifanib; 0.1 µM) was 0.977 and the relative viability (Linifanib; 0.3162 µM) was 0.882.

Cell Line NCI-H1563 has a relative viability (Linifanib + Luminespib; first compound 0.03162 µM) of 0.558, a relative viability (Linifanib + Luminespib; first compound 0.1 µM) of 0.504 and a relative viability (Linifanib + Luminespib; first compound 0.3162 µM) of 0.512. For the same cell line, the relative viability (Linifanib + Alpelisib; first compound 0.03162 µM) was 0.901, the relative viability (Linifanib + Alpelisib; first compound 0.1 µM) was 0.956 and the relative viability (Linifanib + Alpelisib; first compound 0.3162 µM) was 0.956. It also gave a relative viability (Linifanib + Pictilisib; first compound 0.03162 µM) of 0.669, a relative viability (Linifanib + Pictilisib; first compound 0.1 µM) of 0.665 and a relative viability (Linifanib + Pictilisib; first compound 0.3162 µM) of 0.629. It also gave a relative viability (Linifanib + Linsitinib; first compound 0.03162 µM) of 1.14, a relative viability (Linifanib + Linsitinib; first compound 0.1 µM) of 1.33 and a relative viability (Linifanib + Linsitinib; first compound 0.3162 µM) of 1.08. It also gave a relative viability (Linifanib + Pemetrexed; first compound 0.03162 µM) of 0.803, a relative viability (Linifanib + Pemetrexed; first compound 0.1 µM) of 0.911 and a relative viability (Linifanib + Pemetrexed; first compound 0.3162 µM) of 0.692. The relative viability (Linifanib + Dasatinib; first compound 0.03162 µM) was 0.452, the relative viability (Linifanib + Dasatinib; first compound 0.1 µM) was 0.484 and the relative viability (Linifanib + Dasatinib; first compound 0.3162 µM) was 0.496. For the same cell line, the relative viability (Linifanib + Crizotinib; first compound 0.03162 µM) was 0.862, the relative viability (Linifanib + Crizotinib; first compound 0.1 µM) was 0.852 and the relative viability (Linifanib + Crizotinib; first compound 0.3162 µM) was 0.879. The relative viability (Linifanib + OSI-027; first compound 0.03162 µM) was 0.718, the relative viability (Linifanib + OSI-027; first compound 0.1 µM) was 0.814 and the relative viability (Linifanib + OSI-027; first compound 0.3162 µM) was 0.716. It also gave a relative viability (Linifanib + Foretinib; first compound 0.03162 µM) of 0.954, a relative viability (Linifanib + Foretinib; first compound 0.1 µM) of 0.968 and a relative viability (Linifanib + Foretinib; first compound 0.3162 µM) of 0.887. The relative viability (Linifanib + Bortezomib; first compound 0.03162 µM) was 0.952, the relative viability (Linifanib + Bortezomib; first compound 0.1 µM) was 0.87 and the relative viability (Linifanib + Bortezomib; first compound 0.3162 µM) was 0.812. For the same cell line, the relative viability (Linifanib + Phenformin; first compound 0.03162 µM) was 0.669, the relative viability (Linifanib + Phenformin; first compound 0.1 µM) was 0.691 and the relative viability (Linifanib + Phenformin; first compound 0.3162 µM) was 0.605. It also gave a relative viability (Linifanib + Lapatinib; first compound 0.03162 µM) of 0.963, a relative viability (Linifanib + Lapatinib; first compound 0.1 µM) of 1.05 and a relative viability (Linifanib + Lapatinib; first compound 0.3162 µM) of 0.913. It also gave a relative viability (Linifanib; 0.03162 µM) of 0.904, a relative viability (Linifanib; 0.1 µM) of 1.04 and a relative viability (Linifanib; 0.3162 µM) of 1.02.
